From PMC10600239, “Selective MCL-1 inhibitor ABBV-467 is efficacious in tumor models but is associated with cardiac troponin increases in patients” (Communications Medicine, 2023)
Values joined by “and” are separate entries in the source; they are usually repeats but may differ in a detail not shown here. Equal entries are not always repeated. Where two headings read alike, the source gives them in different places.

Experiments:
AMO-1 cells = test: In vitro cell viability assay (CellTiter-Glo); format: cell-based, human; set-up: Cell viability after compound washout (CellTiter-Glo): scale not given here; details: for Cell viability after compound washout (CellTiter-Glo): AMO-1, replicates
Method: All cell lines were grown and treated in RPMI 1640 or Dulbecco’s modified Eagle medium (Sigma, St. Louis, MO) supplemented with 10% fetal bovine serum (Gibco) or 10% human serum (Sigma) and maintained in a humidified incubator at 5% CO2 and 37 °C. DLD-1, MV4-11, NCI-H929 (all ATCC, Manassas, VA, USA) and AMO-1 (DSMZ, Braunschweig, Germany) cells were plated 4000 cells per well in 384-well tissue culture plates and treated with compounds of interest for 24 h at 37 °C, 5% CO2 humidified incubator. Each concentration was tested in duplicate at least 3 separate times. Adherent cells were allowed to adhere overnight prior to treatment. Alternatively, AMO-1 or NCI-H929 cells were treated with ABBV-467 for the indicated contact times (1–24 h) at 37 °C in a 5% CO2 humidified incubator and washed 3 times with compound-free media prior to incubation for the remainder of a 24-h treatment period. Cell viability was subsequently determined using CellTiter-Glo (Promega, Madison, WI, USA) according to the manufacturer’s instructions.
For in vitro viability assays, mean EC50 and EC90 values were determined from the resulting dose-response curves from at least 3 independent experiments, and depict the mean ± standard error of the mean.
Fig. 2 Apoptosis induced by ABBV-467 is mechanism based and induces cell death in MCL-1-dependent cell lines after short target engagement periods. H929 cells were treated with ABBV-467 in the presence or absence of the pan-caspase inhibitor z-VAD-fmk (50 µM) and the impact on caspase-3/7 activation (a), mitochondrial membrane potential (ΔΨm; b), and apoptosis (c) determined. Alternatively, BAK-deficient SKBR3 cells were treated with ABBV-467 for 24 h and the impact on cell viability compared with the parental cell line, determined by CellTiter-Glo. Inset depicts a western blot of BAK and BAX expression in SKBR3 cell variants using GAPDH as a loading control. Each of the 3 proteins were probed on separate blots (d). Data in (a–d) are presented as the mean ± standard error of the mean. H929 and AMO-1 cells were treated with ABBV-467 at the indicated concentrations and the impact on caspase-3/7 activation and viability (DRAQ7-positive) cells determined over time by Incucyte®. Data are presented as the mean ± standard deviation (e). H929 or AMO-1 cells were cultured in media containing 10% human serum and treated with ABBV-467 for the indicated contact times. Cells were subsequently washed 3 times with drug-free media and incubated in drug-free media for the remainder of the 24-h treatment period at 37 °C before cell viability was determined by CellTiter-Glo. Mean EC50 and EC90 values were determined from the resulting dose-response curves from at least 3 independent experiments, each assessed in quadruplicate, and depict the mean ± standard error of the mean. Presented ABBV-467 dose-response curves in H929 and AMO-1 cells were compiled from at least 3 independent experiments (f).

[1] = molecular target: off-target receptors, ion channels, and transporters (Homo sapiens, UniProt P42680); test: Off-target profiling (Supplementary Data 1); details: TR-FRET Kinome; SignalChem A-1214384.2 .02(Subs Conc)
[2] = molecular target: off-target receptors, ion channels, and transporters (Homo sapiens, UniProt Q08881); test: Off-target profiling (Supplementary Data 1); details: TR-FRET Kinome; Invitrogen A-1224615.7 .025(Subs Conc)
[3] = molecular target: off-target receptors, ion channels, and transporters (Homo sapiens, UniProt Q13464); test: Off-target profiling (Supplementary Data 1); details: TR-FRET Kinome; Invitrogen A-1213250.2 .1(Subs Conc)
[4] = molecular target: off-target receptors, ion channels, and transporters (Homo sapiens, UniProt O60674); test: Off-target profiling (Supplementary Data 1); details: TR-FRET Kinome; Invitrogen A-1167389.7 .006(Subs Conc)
[5] = molecular target: off-target receptors, ion channels, and transporters (Homo sapiens, UniProt P24530); test: Off-target profiling (Supplementary Data 1)
[6] = molecular target: off-target receptors, ion channels, and transporters (Homo sapiens, UniProt Q9UM73); test: Off-target profiling (Supplementary Data 1); details: TR-FRET Kinome; Millipore A-1167389.7 .05(Subs Conc)
[7] = molecular target: off-target receptors, ion channels, and transporters (Homo sapiens, UniProt P14416); test: Off-target profiling (Supplementary Data 1)
[8] = molecular target: off-target receptors, ion channels, and transporters (Homo sapiens, UniProt P49336); test: Off-target profiling (Supplementary Data 1); details: TR-FRET Kinome; Invitrogen A-1167389.7 .025(Subs Conc)
[9] = molecular target: off-target receptors, ion channels, and transporters (Homo sapiens, UniProt O94806); test: Off-target profiling (Supplementary Data 1); details: TR-FRET Kinome; Invitrogen A-1169612.6 .2(Subs Conc)
[10] = molecular target: off-target receptors, ion channels, and transporters (Homo sapiens, UniProt P05771); test: Off-target profiling (Supplementary Data 1); details: TR-FRET Kinome, SignalChem A-1167389.7 .05(Subs Conc)
[11] = molecular target: off-target receptors, ion channels, and transporters (Homo sapiens, UniProt P49760); test: Off-target profiling (Supplementary Data 1); details: TR-FRET Kinome; Invitrogen A-1180691.2 .05(Subs Conc)
[12] = molecular target: off-target receptors, ion channels, and transporters (Homo sapiens, UniProt O43353); test: Off-target profiling (Supplementary Data 1); details: TR-FRET Kinome; Millipore A-1499319.7 .1(Subs Conc)

Chain of off-target receptors, ion channels, and transporters (Homo sapiens, UniProt P14416) (P14416 whole entry): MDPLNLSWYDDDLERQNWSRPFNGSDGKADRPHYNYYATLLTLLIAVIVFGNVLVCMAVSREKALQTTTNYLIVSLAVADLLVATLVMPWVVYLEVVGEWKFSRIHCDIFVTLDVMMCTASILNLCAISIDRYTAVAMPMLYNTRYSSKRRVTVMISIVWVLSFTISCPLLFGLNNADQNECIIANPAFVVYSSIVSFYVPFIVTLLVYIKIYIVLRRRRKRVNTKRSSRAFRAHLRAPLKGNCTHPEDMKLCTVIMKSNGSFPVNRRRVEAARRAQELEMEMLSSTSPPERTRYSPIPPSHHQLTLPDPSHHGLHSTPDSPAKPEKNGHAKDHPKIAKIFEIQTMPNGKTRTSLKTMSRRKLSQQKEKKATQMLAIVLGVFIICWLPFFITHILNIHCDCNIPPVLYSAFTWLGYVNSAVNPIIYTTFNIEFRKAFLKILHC
Chain of off-target receptors, ion channels, and transporters (Homo sapiens, UniProt P24530) (P24530 27-442): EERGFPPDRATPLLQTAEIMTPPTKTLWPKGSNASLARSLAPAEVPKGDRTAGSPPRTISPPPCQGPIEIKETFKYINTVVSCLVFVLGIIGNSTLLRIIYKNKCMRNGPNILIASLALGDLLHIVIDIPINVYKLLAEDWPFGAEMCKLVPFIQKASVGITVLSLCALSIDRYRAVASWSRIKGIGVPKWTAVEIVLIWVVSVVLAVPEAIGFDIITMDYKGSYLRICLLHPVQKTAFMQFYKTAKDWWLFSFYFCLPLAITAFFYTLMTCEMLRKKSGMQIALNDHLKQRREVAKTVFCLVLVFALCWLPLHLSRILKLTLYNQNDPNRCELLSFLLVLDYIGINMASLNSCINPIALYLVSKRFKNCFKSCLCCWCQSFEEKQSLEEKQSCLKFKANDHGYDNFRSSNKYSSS
Chain of off-target receptors, ion channels, and transporters (Homo sapiens, UniProt P05771) (P05771 2-671): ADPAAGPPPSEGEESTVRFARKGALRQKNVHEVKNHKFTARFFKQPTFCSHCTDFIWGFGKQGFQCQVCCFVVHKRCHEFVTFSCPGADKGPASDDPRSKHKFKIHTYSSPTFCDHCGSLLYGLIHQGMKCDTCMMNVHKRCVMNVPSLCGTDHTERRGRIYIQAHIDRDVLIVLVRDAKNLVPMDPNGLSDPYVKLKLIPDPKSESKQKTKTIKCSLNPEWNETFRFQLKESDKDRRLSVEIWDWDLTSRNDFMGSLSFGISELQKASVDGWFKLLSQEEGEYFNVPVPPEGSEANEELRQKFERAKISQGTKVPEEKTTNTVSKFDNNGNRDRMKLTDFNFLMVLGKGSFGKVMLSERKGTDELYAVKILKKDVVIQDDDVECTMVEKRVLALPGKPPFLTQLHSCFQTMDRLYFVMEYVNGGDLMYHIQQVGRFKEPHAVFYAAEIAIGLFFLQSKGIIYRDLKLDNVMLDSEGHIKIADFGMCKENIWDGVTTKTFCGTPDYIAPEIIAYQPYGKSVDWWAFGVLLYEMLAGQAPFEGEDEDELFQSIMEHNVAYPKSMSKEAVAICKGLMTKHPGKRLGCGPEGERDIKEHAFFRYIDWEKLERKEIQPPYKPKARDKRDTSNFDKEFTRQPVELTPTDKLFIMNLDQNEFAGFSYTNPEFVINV
Chain of off-target receptors, ion channels, and transporters (Homo sapiens, UniProt Q13464) (Q13464 whole entry): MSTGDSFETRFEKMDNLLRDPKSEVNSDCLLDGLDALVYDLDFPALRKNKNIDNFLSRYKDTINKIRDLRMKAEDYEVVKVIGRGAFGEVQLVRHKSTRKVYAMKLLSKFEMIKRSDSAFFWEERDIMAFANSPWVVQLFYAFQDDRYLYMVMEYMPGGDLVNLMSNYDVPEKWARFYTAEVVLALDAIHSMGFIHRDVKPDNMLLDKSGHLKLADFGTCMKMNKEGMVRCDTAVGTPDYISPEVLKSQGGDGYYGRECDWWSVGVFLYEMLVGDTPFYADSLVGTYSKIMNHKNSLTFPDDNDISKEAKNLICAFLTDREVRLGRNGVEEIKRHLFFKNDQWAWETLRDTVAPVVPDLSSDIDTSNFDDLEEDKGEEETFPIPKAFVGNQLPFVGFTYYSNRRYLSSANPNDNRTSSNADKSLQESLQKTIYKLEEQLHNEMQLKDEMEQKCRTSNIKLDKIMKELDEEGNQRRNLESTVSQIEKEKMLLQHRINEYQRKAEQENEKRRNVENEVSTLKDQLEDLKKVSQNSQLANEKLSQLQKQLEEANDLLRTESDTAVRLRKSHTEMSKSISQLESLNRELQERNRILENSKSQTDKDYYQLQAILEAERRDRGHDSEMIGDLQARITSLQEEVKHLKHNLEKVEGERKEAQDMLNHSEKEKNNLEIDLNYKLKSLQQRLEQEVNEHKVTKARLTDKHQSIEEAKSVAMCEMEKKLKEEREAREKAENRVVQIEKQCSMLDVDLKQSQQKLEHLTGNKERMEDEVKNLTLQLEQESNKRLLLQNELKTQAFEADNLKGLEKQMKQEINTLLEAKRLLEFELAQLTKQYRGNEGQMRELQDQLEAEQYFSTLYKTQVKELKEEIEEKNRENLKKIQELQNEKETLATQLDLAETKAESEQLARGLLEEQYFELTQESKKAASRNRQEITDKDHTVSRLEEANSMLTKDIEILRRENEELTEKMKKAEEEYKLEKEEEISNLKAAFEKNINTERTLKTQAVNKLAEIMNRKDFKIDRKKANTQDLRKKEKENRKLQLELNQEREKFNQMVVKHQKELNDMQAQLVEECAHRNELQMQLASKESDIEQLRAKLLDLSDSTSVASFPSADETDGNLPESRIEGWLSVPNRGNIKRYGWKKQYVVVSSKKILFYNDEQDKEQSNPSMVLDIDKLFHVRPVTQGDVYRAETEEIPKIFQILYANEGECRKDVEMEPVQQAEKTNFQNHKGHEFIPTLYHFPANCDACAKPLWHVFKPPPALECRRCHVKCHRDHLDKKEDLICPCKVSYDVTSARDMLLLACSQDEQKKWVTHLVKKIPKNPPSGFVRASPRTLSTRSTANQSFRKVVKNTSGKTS
Chain of off-target receptors, ion channels, and transporters (Homo sapiens, UniProt Q9UM73) (Q9UM73 19-1620): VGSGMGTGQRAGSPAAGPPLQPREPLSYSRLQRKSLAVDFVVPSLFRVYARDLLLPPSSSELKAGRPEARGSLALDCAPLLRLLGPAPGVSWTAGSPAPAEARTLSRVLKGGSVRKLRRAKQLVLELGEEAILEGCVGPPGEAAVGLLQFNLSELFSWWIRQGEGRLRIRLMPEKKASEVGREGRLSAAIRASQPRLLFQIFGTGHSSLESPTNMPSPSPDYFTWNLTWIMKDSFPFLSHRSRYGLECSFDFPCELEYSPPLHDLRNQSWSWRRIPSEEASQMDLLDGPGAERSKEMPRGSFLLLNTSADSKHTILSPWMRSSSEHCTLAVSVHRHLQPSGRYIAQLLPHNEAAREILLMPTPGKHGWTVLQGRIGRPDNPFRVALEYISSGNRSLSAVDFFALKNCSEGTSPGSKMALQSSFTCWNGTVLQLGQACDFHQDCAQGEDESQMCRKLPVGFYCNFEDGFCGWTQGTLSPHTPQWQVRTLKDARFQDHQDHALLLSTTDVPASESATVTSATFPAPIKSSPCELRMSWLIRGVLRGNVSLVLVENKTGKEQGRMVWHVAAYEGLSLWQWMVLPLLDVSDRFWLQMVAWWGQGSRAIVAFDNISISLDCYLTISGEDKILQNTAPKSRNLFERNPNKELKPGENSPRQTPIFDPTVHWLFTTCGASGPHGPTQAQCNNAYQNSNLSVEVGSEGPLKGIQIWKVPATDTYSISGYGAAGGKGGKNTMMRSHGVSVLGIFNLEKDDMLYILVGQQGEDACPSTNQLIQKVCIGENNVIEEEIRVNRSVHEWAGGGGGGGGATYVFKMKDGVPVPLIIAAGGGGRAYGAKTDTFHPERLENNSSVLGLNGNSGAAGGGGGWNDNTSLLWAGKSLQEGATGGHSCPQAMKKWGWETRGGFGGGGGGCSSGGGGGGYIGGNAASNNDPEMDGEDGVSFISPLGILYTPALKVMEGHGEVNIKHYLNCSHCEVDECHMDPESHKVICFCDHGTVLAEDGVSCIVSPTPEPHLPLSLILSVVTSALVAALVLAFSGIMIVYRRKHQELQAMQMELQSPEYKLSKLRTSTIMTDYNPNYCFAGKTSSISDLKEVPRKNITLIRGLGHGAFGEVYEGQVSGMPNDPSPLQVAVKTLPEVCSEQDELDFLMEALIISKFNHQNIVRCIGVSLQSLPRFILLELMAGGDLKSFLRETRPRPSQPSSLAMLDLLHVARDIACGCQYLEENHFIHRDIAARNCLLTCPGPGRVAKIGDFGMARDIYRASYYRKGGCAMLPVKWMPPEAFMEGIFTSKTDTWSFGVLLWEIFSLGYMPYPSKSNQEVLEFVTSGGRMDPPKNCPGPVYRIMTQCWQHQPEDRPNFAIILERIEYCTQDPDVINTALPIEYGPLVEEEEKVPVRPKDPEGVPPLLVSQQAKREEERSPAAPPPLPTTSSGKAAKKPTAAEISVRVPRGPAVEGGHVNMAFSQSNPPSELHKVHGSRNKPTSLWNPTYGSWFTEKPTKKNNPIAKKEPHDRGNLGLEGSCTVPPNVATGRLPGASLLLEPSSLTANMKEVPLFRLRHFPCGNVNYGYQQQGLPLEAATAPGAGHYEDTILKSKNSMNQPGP
Chain of off-target receptors, ion channels, and transporters (Homo sapiens, UniProt P49336) (P49336 whole entry): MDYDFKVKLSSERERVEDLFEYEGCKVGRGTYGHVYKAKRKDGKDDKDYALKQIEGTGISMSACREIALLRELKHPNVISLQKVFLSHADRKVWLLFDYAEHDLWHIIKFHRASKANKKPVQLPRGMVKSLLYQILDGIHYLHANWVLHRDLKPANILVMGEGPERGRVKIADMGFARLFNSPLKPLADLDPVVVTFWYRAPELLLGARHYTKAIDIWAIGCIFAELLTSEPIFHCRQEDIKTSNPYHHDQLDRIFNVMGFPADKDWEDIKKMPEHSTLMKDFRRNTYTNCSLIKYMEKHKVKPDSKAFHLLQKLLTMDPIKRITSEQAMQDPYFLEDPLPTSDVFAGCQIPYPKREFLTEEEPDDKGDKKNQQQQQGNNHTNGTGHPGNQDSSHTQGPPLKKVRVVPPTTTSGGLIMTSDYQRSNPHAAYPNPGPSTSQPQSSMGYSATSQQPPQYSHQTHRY

Cc1c(Cl)c2c(Cl)c(C)c1-c1c(-c3ccc(F)cc3)sc3ncnc(c13)O[C@@H](C(=O)O)Cc1cc(ccc1OCc1ccnc(-c3ccc(OC[C@H]4COCCO4)cc3)n1)OC[C@@H](CN1CCN(C)CC1)O2 [ABBV-467]
EC50 (AMO-1 cells; AMO-1, individual determinations, read-out: Individual EC50): 0.224 nM and 0.216 nM and 0.212 nM and 0.145 nM and 0.159 nM and 0.131 nM and 0.106 nM and 0.0956 nM and 0.0874 nM and 0.217 nM and 0.188 nM
Cell viability after compound washout (CellTiter-Glo) (AMO-1 cells; 2hr + 22hr, Log Conc 1): 0.4281 and 0.471 and 0.3421 and 0.36 and 0.84 and 0.79 and 0.71 and 0.8 and 2.671 and 3.13 and 2.51 and 2.629
Cell viability after compound washout (CellTiter-Glo) (AMO-1 cells; c49-c56, head empty, Log Conc 0.39794): 0.4
EC50 (AMO-1 cells; Homo sapiens, AMO1, 10% human serum, contact time 1 hr, washout, viability at 24 h, read-out: AMO-1 Mean EC50): 31.9 nM
EC90 (AMO-1 cells; Homo sapiens, AMO1, 10% human serum, contact time 2 hr, washout, viability at 24 h): 174 nM
EC50 (AMO-1 cells; Homo sapiens, AMO1, 10% human serum, contact time 2 hr, washout, viability at 24 h, read-out: AMO-1 Mean EC50): 27.1 nM
EC90 (AMO-1 cells; Homo sapiens, AMO1, 10% human serum, contact time 4 hr, washout, viability at 24 h): 141 nM
EC50 (AMO-1 cells; Homo sapiens, AMO1, 10% human serum, contact time 4 hr, washout, viability at 24 h, read-out: AMO-1 Mean EC50): 17.4 nM
EC90 (AMO-1 cells; Homo sapiens, AMO1, 10% human serum, contact time 6 hr, washout, viability at 24 h): 114 nM
EC50 (AMO-1 cells; Homo sapiens, AMO1, 10% human serum, contact time 6 hr, washout, viability at 24 h, read-out: AMO-1 Mean EC50): 9.4 nM
EC90 (AMO-1 cells; Homo sapiens, AMO1, 24 h, 10% human serum, contact time 24 hr): 6.7 nM
EC50 (AMO-1 cells; Homo sapiens, AMO1, 24 h, 10% human serum, contact time 24 hr, read-out: AMO-1 Mean EC50): 0.7 nM
EC50 (AMO-1 cells; Homo sapiens, AMO1, 24 h, read-out: AMO-1 EC50 (nM, 10% FBS), 10% FBS, 24 h continuous treatment): 0.1 nM
EC50 (AMO-1 cells; Homo sapiens, AMO1, AMO-1, arithmetic mean, read-out: Arithmetic Mean EC50 nM): 0.15 nM
EC50 (AMO-1 cells; Homo sapiens, AMO1, AMO-1, arithmetic mean, read-out: Arithmetic Mean EC50 µM): 0.155 nM
EC50 (AMO-1 cells; Homo sapiens, AMO1, read-out: Individual EC50 µM, AMO-1, individual determinations): 0.112 nM
EC50 (AMO-1 cells; read-out: AMO-1 EC50 (nM, 10% FBS), 10% FBS, 24 h continuous treatment): 0.16 nM
EC50 (AMO-1 cells; read-out: Individual EC50 µM, AMO-1, individual determinations): 0.122 nM
TEC - IC50 [1]: > 10000 nM
ITK - IC50 [2]: > 10000 nM
Rock1 - IC50 [3]: > 10000 nM
JAK2 - IC50 [4]: > 10000 nM
ETB CHO Human - EC50 ([5]; Bioprofiling 6pt Ag): > 10000 nM
ETB CHO Human - IC50 ([5]; Bioprofiling 6pt Antag, BQ-3020): > 10000 nM
ALK - IC50 [6]: > 10000 nM
D2L CHO Human - EC50 ([7]; Bioprofiling 6pt Ag): > 10000 nM
D2L CHO Human - IC50 ([7]; Bioprofiling 6pt Antag, Quinpirole): > 10000 nM
CDK8/Cyclin C - IC50 [8]: > 10000 nM
Prkcn - IC50 [9]: > 10000 nM
IC50 ([10]; read-out: PKCbeta2 - IC50): > 10000 nM
Ki ([10]; read-out: PKCbeta2 - Ki): > 3900 nM
CLK2 - IC50 [11]: > 10000 nM
RIPK2 - IC50 [12]: > 10000 nM
